According to patent US9828385B2, “Spiro-oxazolones” (Hoffmann-La Roche Inc., priority 2014, dated 2017):

Biological target: T1, human V1a receptor (Homo sapiens, UniProt P37288)
T1 construct: expressed in transfected cells; host or cells: HEK293 cells, transiently transfected; cell membranes
Experiment: human V1a receptor binding studies (3H-Vasopressin, SPA beads)
Settings: membranes of HEK293 cells transiently transfected with human V1a receptor, Ki by Cheng-Prussoff from IC50, read-out: pKi hV1a (converted)
Protocol: The human V1a receptor was cloned by RT-PCR from total human liver RNA. The coding sequence was subcloned in an expression vector after sequencing to confirm the identity of the amplified sequence. […] Cell membranes were prepared from HEK293 cells transiently transfected with the expression vector and grown in 20 liter fermenters with the following protocol.
50 g of cells are re-suspended in 30 ml freshly prepared ice cold Lysis buffer (50 mM HEPES, 1 mM EDTA, 10 mM MgCl2 adjusted to pH=7.4+complete cocktail of protease inhibitor (Roche Diagnostics)). Homogenized with Polytron for 1 min and sonicated on ice for 2×2 minutes at 80% intensity (Vibracell sonicator). The preparation is centrifuged 20 min at 500 g at 4° C., the pellet is discarded and the supernatant centrifuged 1 hour at 43′000 g at 4° C. (19′000 rpm). The pellet is re-suspended in 12.5 ml Lysis buffer+12.5 ml Sucrose 20% and homogenized using a Polytron for 1-2 min. The protein concentration is determined by the Bradford method and aliquots are stored at −80° C. until use. For binding studies 60 mg Yttrium silicate SPA beads (Amersham) are mixed with an aliquot of membrane in binding buffer (50 mM Tris, 120 mM NaCl, 5 mM KCl, 2 mM CaCl2, 10 mM MgCl2) for 15 minutes with mixing. 50 μl of bead/membrane mixture is then added to each well of a 96 well plate, followed by 50 μl of 4 nM 3H-Vasopressin (American Radiolabeled Chemicals). For total binding measurement 100 μl of binding buffer are added to the respective wells, for non-specific binding 100 μl of […] cold vasopressin and for compound testing 100 μl of a serial dilution of each compound in 2% DMSO. The plate is incubated 1 h at room temperature, centrifuged 1 min at 1000 g and counted on a Packard Top-Count. Non-specific binding counts are subtracted from each well and data is normalized to the maximum specific binding set at 100%. To calculate an IC 50 the curve is fitted using a non-linear regression model (XLfit) and the Ki is calculated using the Cheng-Prussoff equation.

T1 sequence (P37288 whole entry): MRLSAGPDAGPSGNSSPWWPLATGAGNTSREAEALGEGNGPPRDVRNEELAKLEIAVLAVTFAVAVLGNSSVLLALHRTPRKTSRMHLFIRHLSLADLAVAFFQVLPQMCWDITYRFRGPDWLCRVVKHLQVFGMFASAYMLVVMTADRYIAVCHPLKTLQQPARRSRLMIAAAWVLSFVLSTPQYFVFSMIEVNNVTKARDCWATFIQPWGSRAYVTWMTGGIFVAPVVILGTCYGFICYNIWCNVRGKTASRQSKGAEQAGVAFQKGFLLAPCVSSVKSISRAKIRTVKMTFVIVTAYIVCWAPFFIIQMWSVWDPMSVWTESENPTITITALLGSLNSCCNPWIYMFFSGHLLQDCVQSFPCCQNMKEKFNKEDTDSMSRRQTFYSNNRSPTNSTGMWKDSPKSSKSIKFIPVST

Compared with `CCCCCC1CCC2(CC1)OC(N1CCC3(CC1)OC(=O)c1ccccc13)=NC2=O` (single isomer, unassigned; diastereomer b) [Example 127, 1′-[4-Oxo-8-pentyl-1-oxa-3-azaspiro[4.5]dec-2-en-2-yl]-3H-spiro[2-benzofuran-1,4′-piperidin]-3-one diastereomer b], `CCCCCC1CCC2(CC1)OC(N1CCC3(CC1)OCc1ccccc13)=NC2=O` (single isomer, unassigned; diastereomer b) [Example 129, 8-Pentyl-2-(1′H,3H-spiro[2-benzofuran-1,4′-piperidin]-1′-yl)-1-oxa-3-azaspiro[4.5]dec-2-en-4-one diastereomer b] is 1.6-fold lower in Ki: 251 nM for the first, 158 nM for the second.

First: O=C1N=C(N2CCC3(CC2)OCc2ccccc23)OC12C[C@@H]1OCCO[C@@H]1C2 (single isomer, unassigned; diastereomer b) [Example 145, 2′-(1′H,3H-Spiro[2-benzofuran-1,4′-piperidin]-1′-yl)-2,3,4a,5,7,7a-hexahydro-4′H-spiro[cyclopenta[b][1,4]dioxine-6,5′-[1,3]oxazol]-4′-one diastereomer b]
Second: CCOC(=O)C1[C@H]2CC3(C[C@@H]12)OC(N1CCC2(CC1)OCc1ccccc12)=NC3=O (single isomer, unassigned; diastereomer b) [Example 149, Ethyl 4′-oxo-2′-(1′H,3H-spiro[2-benzofuran-1,4′-piperidin]-1′-yl)-4′H-spiro[bicyclo[3.1.0]hexane-3,5′-[1,3]oxazole]-6-carboxylate diastereomer b]
The Ki of the first is 4-fold lower: 50.1 nM for the first, 200 nM for the second.

Going from `CCCCC1OC(N2CCC3(CC2)OC(=O)c2ccccc23)=NC1=O` (single isomer, unassigned; enantiomer a) [Example 5, 1′-[5-Butyl-4-oxo-4,5-dihydro-1,3-oxazol-2-yl]-3H-spiro[2-benzofuran-1,4′-piperidin]-3-one enantiomer A] to `CCCCC1OC(N2CCC3(CC2)OCc2ccccc23)=NC1=O` (stereo not shown) [Example 2, 5-Butyl-2-(1′H,3H-spiro[2-benzofuran-1,4′-piperidin]-1′-yl)-1,3-oxazol-4(5H)-one], the Ki falls from 251 nM to 5.01 nM (50-fold).

Compared with `O=C1N=C(N2CCC3(CC2)OCc2ccccc23)OC1CC1CCCC1` (single isomer, unassigned; enantiomer a) [Example 13, 5-(Cyclopentylmethyl)-2-(1′H,3H-spiro[2-benzofuran-1,4′-piperidin]-1′-yl)-1,3-oxazol-4(5H)-one enantiomer A], `O=C1OC2(CCN(C3=NC(=O)C(CC4CCCC4)O3)CC2)c2ccccc21` (single isomer, unassigned; enantiomer a) [Example 15, 1′-[5-(Cyclopentylmethyl)-4-oxo-4,5-dihydro-1,3-oxazol-2-yl]-3H-spiro[2-benzofuran-1,4′-piperidin]-3-one enantiomer A] is 3.2-fold higher in Ki: 0.794 nM for the first, 2.51 nM for the second.

First: O=C1OC2(CCN(C3=NC(=O)C(Cc4ccccc4)O3)CC2)c2ccccc21 (single isomer, unassigned; enantiomer a) [Example 20, 1′-[5-Benzyl-4-oxo-4,5-dihydro-1,3-oxazol-2-yl]-3H-spiro[2-benzofuran-1,4′-piperidin]-3-one enantiomer A]
Second: O=C1N=C(N2CCC3(CC2)OCc2ccccc23)OC1Cc1ccccc1 (stereo not shown) [Example 17, 5-Benzyl-2-(1′H,3H-spiro[2-benzofuran-1,4′-piperidin]-1′-yl)-1,3-oxazol-4(5H)-one]
The Ki of the first is 63-fold higher: 251 nM for the first, 3.98 nM for the second.

`CC1(Cc2ccccc2)OC(N2CCC3(CC2)OC(=O)c2ccccc23)=NC1=O` (single isomer, unassigned; enantiomer a) [Example 72, 1′-[5-Benzyl-5-methyl-4-oxo-4,5-dihydro-1,3-oxazol-2-yl]-3H-spiro[2-benzofuran-1,4′-piperidin]-3-one enantiomer A] and `CC1(Cc2ccc(Cl)cc2)OC(N2CCC3(CC2)OC(=O)c2ccccc23)=NC1=O` (single isomer, unassigned; enantiomer a) [Example 80, 1′-[5-(4-Chlorobenzyl)-5-methyl-4-oxo-4,5-dihydro-1,3-oxazol-2-yl]-3H-spiro[2-benzofuran-1,4′-piperidin]-3-one enantiomer A] are within 1.5-fold of each other in Ki: 25.1 nM for the first, 20 nM for the second.

Compared with `CCCCC1OC(N2CCC3(CC2)OC(=O)c2ccccc23)=NC1=O` (single isomer, unassigned; enantiomer b) [Example 6, 1′-[5-Butyl-4-oxo-4,5-dihydro-1,3-oxazol-2-yl]-3H-spiro[2-benzofuran-1,4′-piperidin]-3-one enantiomer B], `O=C1OC2(CCN(C3=NC(=O)C(CC4CCCC4)O3)CC2)c2ccccc21` (single isomer, unassigned; enantiomer b) [Example 16, 1′-[5-(Cyclopentylmethyl)-4-oxo-4,5-dihydro-1,3-oxazol-2-yl]-3H-spiro[2-benzofuran-1,4′-piperidin]-3-one enantiomer B] is 1.6-fold lower in Ki: 20 nM for the first, 12.6 nM for the second.

Going from `O=C1N=C(N2CCC3(CC2)OCc2ccccc23)OC1CC1CCCC1` (single isomer, unassigned; enantiomer b) [Example 14, 5-(Cyclopentylmethyl)-2-(1′H,3H-spiro[2-benzofuran-1,4′-piperidin]-1′-yl)-1,3-oxazol-4(5H)-one enantiomer B] to `CCCC1OC(N2CCC3(CC2)OCc2ccccc23)=NC1=O` (stereo not shown) [Example 1, 5-Propyl-2-(1′H,3H-spiro[2-benzofuran-1,4′-piperidin]-1′-yl)-1,3-oxazol-4(5H)-one], the Ki rises from 2.51 nM to 79.4 nM (32-fold).

Compared with `O=C1OC2(CCN(C3=NC(=O)C(Cc4ccccc4)O3)CC2)c2ccccc21` (single isomer, unassigned; enantiomer b) [Example 21, 1′-[5-Benzyl-4-oxo-4,5-dihydro-1,3-oxazol-2-yl]-3H-spiro[2-benzofuran-1,4′-piperidin]-3-one enantiomer B], `O=C1N=C(N2CCC3(CC2)OCc2ccccc23)O[C@@H]1Cc1ccccc1` [Example 18, (+)-(5R)-5-Benzyl-2-(1′H,3H-spiro[2-benzofuran-1,4′-piperidin]-1′-yl)-1,3-oxazol-4(5H)-one] is 3.2-fold lower in Ki: 5.01 nM for the first, 1.58 nM for the second.

Going from `CC1(Cc2ccccc2)OC(N2CCC3(CC2)OC(=O)c2ccccc23)=NC1=O` (single isomer, unassigned; enantiomer b) [Example 73, 1′-[5-Benzyl-5-methyl-4-oxo-4,5-dihydro-1,3-oxazol-2-yl]-3H-spiro[2-benzofuran-1,4′-piperidin]-3-one enantiomer B] to `CC1(Cc2ccc(Cl)cc2)OC(N2CCC3(CC2)OC(=O)c2ccccc23)=NC1=O` (single isomer, unassigned; enantiomer b) [Example 81, 1′-[5-(4-Chlorobenzyl)-5-methyl-4-oxo-4,5-dihydro-1,3-oxazol-2-yl]-3H-spiro[2-benzofuran-1,4′-piperidin]-3-one enantiomer B], the Ki rises from 251 nM to 501 nM (2-fold).

First: CC(C)CC1OC(N2CCC3(CC2)OCc2ccccc23)=NC1=O (stereo not shown) [Example 7, 5-(2-Methylpropyl)-2-(1′H,3H-spiro[2-benzofuran-1,4′-piperidin]-1′-yl)-1,3-oxazol-4(5H)-one]
Second: C=CCC1OC(N2CCC3(CC2)OCc2ccccc23)=NC1=O (stereo not shown) [Example 8, 5-(Prop-2-en-1-yl)-2-(1′H,3H-spiro[2-benzofuran-1,4′-piperidin]-1′-yl)-1,3-oxazol-4(5H)-one]
The Ki of the first is 7.9-fold lower: 20 nM for the first, 158 nM for the second.

Compared with `C=C(C)CC1OC(N2CCC3(CC2)OCc2ccccc23)=NC1=O` (stereo not shown) [Example 9, 5-(2-Methylprop-2-en-1-yl)-2-(1′H,3H-spiro[2-benzofuran-1,4′-piperidin]-1′-yl)-1,3-oxazol-4(5H)-one], `C=C(CC1OC(N2CCC3(CC2)OCc2ccccc23)=NC1=O)C(F)(F)F` (stereo not shown) [Example 10, 2-(1′H,3H-Spiro[2-benzofuran-1,4′-piperidin]-1′-yl)-5-[2-(trifluoromethyl)prop-2-en-1-yl]-1,3-oxazol-4(5H)-one] is 2-fold higher in Ki: 2 nM for the first, 3.98 nM for the second.

Going from `CC#CCC1OC(N2CCC3(CC2)OCc2ccccc23)=NC1=O` (stereo not shown) [Example 11, 5-(But-2-yn-1-yl)-2-(1′H,3H-spiro[2-benzofuran-1,4′-piperidin]-1′-yl)-1,3-oxazol-4(5H)-one] to `O=C1N=C(N2CCC3(CC2)OCc2ccccc23)O[C@H]1Cc1ccccc1` [Example 19, (−)-(5S)-5-Benzyl-2-(1′H,3H-spiro[2-benzofuran-1,4′-piperidin]-1′-yl)-1,3-oxazol-4(5H)-one], the Ki falls from 50.1 nM to 25.1 nM (2-fold).

Going from `O=C1N=C(N2CCC3(CC2)OCc2ccccc23)OC1c1ccccc1` (stereo not shown) [Example 12, 5-Phenyl-2-(1′H,3H-spiro[2-benzofuran-1,4′-piperidin]-1′-yl)-1,3-oxazol-4(5H)-one] to `CC1OC2(CCN(C3=NC(=O)C(Cc4ccccc4)O3)CC2)c2ccccc21` (stereo not shown) [Example 22, 5-Benzyl-2-(3-methyl-1′H,3H-spiro[2-benzofuran-1,4′-piperidin]-1′-yl)-1,3-oxazol-4(5H)-one], the Ki falls from 316 nM to 1.26 nM (250-fold).
